Test results published in patent publication US20100260772A1, “METHODS FOR TREATING OR PREVENTING DISEASES ASSOCIATED WITH LOW BONE MASS” (THE TRUSTEES OF COLUMBIA UNIVERSITY IN THE CITY OF NEW YORK, priority 2007, published 2010).

Columns and labels:
[1] = tested on: cfos expression in brain stems; experiment: Leptin injection, cfos expression in brain stem; assay type: in vivo; details: following leptin injection
Source text: We know that expression of the leptin receptor ObRb is not restricted to hypothalamic neurons and can be found in particular in serotonin-producing neurons of the brainstem that also express Tph2. […] This latter result means that leptin's first site of action in the brain is not, at least as far as controlling bone mass is concerned, the hypothalamus but rather the brainstem where serotonergic neurons are localized.

[2] = tested on: neuropeptides Y (Npy), a leptin target gene in arcuate neurons; experiment: Leptin injection, Npy expression (internal control); assay type: in vivo, mice; details: same leptin injection
Source text: Next, we injected i.p […] of leptin and studied its effects on Tph2 expression 4 and […]. We also measured the brain concentration of serotonin in leptin knockouts (ob/ob mice). FIG. 5. […] FIG. 15. […] FIG. 5. […] Serotonin neurons in the brain stem have the ObRb receptors that bind to leptin, and they project to the hypothalamus.

[3] = tested on: Tph2 expression in brainstem; experiment: Leptin injection, Tph2 expression in brainstem; assay type: in vivo, mice

## leptin: endogenous polypeptide product of an ob gene
[1]
  cfos expression in brain stems: increased cfos expression
[2]
  expression of neuropeptides Y (Npy): decreased
[3]; leptin injection (ICV, FIG. 7)
  Tph2 expression in brain stem (in words): decreases Tph2 expression
[3]; leptin injection i.c.v., FIG. 15
  decrease of Tph2 expression in brainstem: approximately 50%
